Experimental data: patent US11395798B2, “O/W type emulsion” (NOF CORPORATION, priority 2015, dated 2022)

Legend:
[1] = retentivity in blood of Dex-CHEMS / Dex-Pal emulsions (HPLC of plasma); parameters: species or system ICR mouse; conditions: mouse, in vivo, iv
Experimental: When the lipid composition was 3 mM B-2/DOPC/Chol=3/4/3+10 mol % Dex-CHEMS+10 mol % DMG-PEG2000+10 mol % DSG-PEG2000 (1000 μL), a lipid solution was mixed in vitro as follows.
The solvent was evaporated once and the residue was redissolved in 100 μL CHCl3. N2 gas was blown to form a lipid thin film on the wall of a test tube. After a few hours of a vacuum treatment by a desiccator, 20 mM Maric acid buffer (30 mM NaCl, pH 3.0, 1000 μL) was added, and the mixture was incubated for 10 min at room temperature. After sonication with a bath-type sonicator for 30 sec, the mixture was sonicated by a probe-type sonicator for 5 min (output power: 30%). After centrifugation at 4° C., 15000 g for 5 min, the supernatant was collected. Neutralization was performed by adding an equal amount of 36 mM NaOH/PBS.
An emulsion composed of Dex-CHEMS and B-2 was administered to ICR mouse (4 w ♂) at 25 μg Dex-CHEMS/mouse. […]
Plasma (16.5 μL) centrifuged at 4° C., 1000 g for 10 min was transferred to another 1.5 mL tube. […] Using HPLC, the peak area of Dex-CHEMS and the peak area of 4 MU-Pal were calculated. The peak area of 0.5, 0.25, 0.125, 0.0625 nmol Dex-CHEMS was calculated by a similar method using HPLC and used as an analytical curve. […]
The residual rate in blood at 1 hr later was calculated with that 1 min after the administration as 100%.

[2] = influence of concentration of PEG lipid on retentivity in blood; type: in vivo; conditions: B-2/DOPC/Chol=3/4/3, 10 mol % DMG-PEG2000, 3-9 mol % DSG-PEG2000, 10 mol % Dex-CHEMS; mouse tail vein; almost equal for 6 and 9 mol %
Experimental: An emulsion having a composition of B-2/DOPC/Chol=3/4/3+10 mol % DMG-PEG2000+3-9 mol % DSG-PEG2000+10 mol % Dex-CHEMS was prepared in the same manner as in Example 1. An emulsion having each PEG amount was administered from the mouse tail vein, plasma was collected 1 min, 1 hr, 6 hr and 24 hr later, extracted with an organic solvent, and Dex-CHEMS concentration was calculated by HPLC. Along with an increase in DSG-PEG2000, the retentivity in blood was improved to become almost equal for DSG-PEG2000 6 mol % and 9 mol %.

Question: What does the source list for `CC(C)CCC[C@@H](C)[C@H]1CC[C@H]2C3CC=C4C[C@@H](OC(=O)CCC(=O)OCC(=O)[C@]5(O)[C@@H](C)C[C@@H]6[C@H]7CCC8=CC(=O)C=C[C@@]8(C)[C@]7(F)C(O)C[C@]65C)CC[C@]4(C)[C@H]3CC[C@]12C` (some centres unmarked) [Dex-CHEMS, dexamethasone cholesterol hemisuccinate]?
Answer: residual in blood at 1 hr (1 min after administration as 100%) [1]: continuously remained; retentivity in blood along with an increase in DSG-PEG2000 [2]: improved
